# Experimental data from PubChem BioAssay AID258 (DTP/NCI, 2004).
# Where “and” joins values, the source holds several entries; their conditions need not be identical. Equal values may be shown once. Toxic doses and inconclusive results are not listed.
# System: CD2F1 mice, L1210 leukemia sc, survival T/C
# Test: NCI In Vivo Anticancer Drug Screen. Data for tumor model L1210 Leukemia (subcutaneous) in CD2F1 (CDF1) mice
# Conditions: endpoint: median survival time, higher = longer survival
# Summary of the method: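 Transplantable tumor-bearing mice were treated with compound; survival or tumor size measured and expressed as treated-group value (T) divided by vehicle-treated control value (C).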
# [1] = dose: 23.0 mg/kg/injection, schedule: Q01DX Z (sc), vehicle: water
# [2] = dose: 39.0 mg/kg/injection, schedule: Q01DX Z (sc), vehicle: water
# [3] = dose: 65.0 mg/kg/injection, schedule: Q01DX Z (sc), vehicle: water
compound,measurement,setting,value
O=c1[nH]c(=O)n(C2CC(O)C(CO)O2)cc1F (centres undefined),T/C,"dose: 5.0 mg/kg/injection, schedule: Q01DX009 (ip), vehicle: saline",107 % of control
same,T/C,"dose: 5.0 mg/kg/injection, schedule: Q01DX009 (sc), vehicle: saline",104 % of control
same,T/C,"dose: 10.0 mg/kg/injection, schedule: Q01DX009 (ip), vehicle: saline",108 % of control
same,T/C,"dose: 10.0 mg/kg/injection, schedule: Q01DX009 (sc), vehicle: saline",109 % of control
same,T/C,"dose: 15.6 mg/kg/injection, schedule: Q01DX006 (ip), vehicle: saline",112 % of control
same,T/C,"dose: 15.6 mg/kg/injection, schedule: Q01DX009 (ip), vehicle: saline",118 % of control
same,T/C,"dose: 20.0 mg/kg/injection, schedule: Q01DX009 (ip), vehicle: saline",119 % of control
same,T/C,"dose: 20.0 mg/kg/injection, schedule: Q01DX009 (sc), vehicle: saline",106 % of control and 121 % of control
same,T/C,"dose: 30.0 mg/kg/injection, schedule: Q01DX009 (sc), vehicle: saline",107 % of control
same,T/C,"dose: 31.3 mg/kg/injection, schedule: Q01DX006 (ip), vehicle: saline",106 % of control
same,T/C,"dose: 31.3 mg/kg/injection, schedule: Q01DX009 (ip), vehicle: saline",118 % of control
same,T/C,"dose: 31.3 mg/kg/injection, schedule: Q02DX005 (ip), vehicle: saline",112 % of control
same,T/C,"dose: 31.3 mg/kg/injection, schedule: Q04DX003 (ip), vehicle: saline",112 % of control
same,T/C,"dose: 40.0 mg/kg/injection, schedule: Q01DX009 (ip), vehicle: saline",122 % of control
same,T/C,"dose: 40.0 mg/kg/injection, schedule: Q01DX009 (sc), vehicle: saline",122 % of control
same,T/C,"dose: 60.0 mg/kg/injection, schedule: Q01DX009 (ip), vehicle: saline",124 % of control
same,T/C,"dose: 62.5 mg/kg/injection, schedule: Q01DX001 (ip), vehicle: saline",112 % of control
same,T/C,"dose: 62.5 mg/kg/injection, schedule: Q04DX003 (ip), vehicle: saline",100 % of control
same,T/C,"dose: 80.0 mg/kg/injection, schedule: Q01DX009 (ip), vehicle: saline",118 % of control
same,T/C,"dose: 120.0 mg/kg/injection, schedule: Q01DX009 (ip), vehicle: saline",110 % of control
same,T/C,"dose: 120.0 mg/kg/injection, schedule: Q01DX009 (sc), vehicle: saline",106 % of control
same,T/C,"dose: 125.0 mg/kg/injection, schedule: Q01DX001 (ip), vehicle: saline",112 % of control
same,T/C,"dose: 125.0 mg/kg/injection, schedule: Q01DX009 (ip), vehicle: saline",150 % of control
same,T/C,"dose: 125.0 mg/kg/injection, schedule: Q02DX005 (ip), vehicle: saline",118 % of control
same,T/C,"dose: 125.0 mg/kg/injection, schedule: Q04DX003 (ip), vehicle: saline",112 % of control
same,T/C,"dose: 130.0 mg/kg/injection, schedule: Q01DX Z (sc), vehicle: saline",116 % of control
same,T/C,"dose: 160.0 mg/kg/injection, schedule: Q01DX009 (ip), vehicle: saline",106 % of control and 123 % of control
same,T/C,"dose: 160.0 mg/kg/injection, schedule: Q01DX009 (sc), vehicle: saline",112 % of control
same,T/C,"dose: 216.0 mg/kg/injection, schedule: Q01DX Z (sc), vehicle: saline",116 % of control
same,T/C,"dose: 240.0 mg/kg/injection, schedule: Q01DX009 (ip), vehicle: saline",96 % of control
same,T/C,"dose: 250.0 mg/kg/injection, schedule: Q01DX006 (ip), vehicle: saline",162 % of control
same,T/C,"dose: 250.0 mg/kg/injection, schedule: Q01DX009 (ip), vehicle: saline",162 % of control
same,T/C,"dose: 250.0 mg/kg/injection, schedule: Q02DX005 (ip), vehicle: saline",150 % of control
same,T/C,"dose: 360.0 mg/kg/injection, schedule: Q01DX Z (sc), vehicle: saline",116 % of control
same,T/C,"dose: 500.0 mg/kg/injection, schedule: Q02DX005 (ip), vehicle: saline",156 % of control
same,T/C,"dose: 500.0 mg/kg/injection, schedule: Q04DX003 (ip), vehicle: saline",150 % of control
same,T/C,"dose: 600.0 mg/kg/injection, schedule: Q01DX Z (sc), vehicle: saline",108 % of control
same,T/C,"dose: 1000.0 mg/kg/injection, schedule: Q01DX001 (ip), vehicle: saline",150 % of control
FC(F)(F)c1nc2nc(Cl)c(Cl)nc2[nH]1,T/C,"dose: 30.0 mg/kg/injection, schedule: Q04DX003 (ip), vehicle: saline with Tween-80",104 % of control
same,T/C,"dose: 44.0 mg/kg/injection, schedule: Q04DX003 (ip), vehicle: saline with Tween-80",106 % of control
same,T/C,"dose: 66.0 mg/kg/injection, schedule: Q04DX003 (ip), vehicle: saline with Tween-80",106 % of control
CC(C)CCNc1ncnc2c1cnn2C,T/C,[1],100 % of control
same,T/C,[2],100 % of control
same,T/C,[3],100 % of control
same,T/C,"dose: 108.0 mg/kg/injection, schedule: Q01DX Z (sc), vehicle: water",109 % of control
same,T/C,"dose: 180.0 mg/kg/injection, schedule: Q01DX Z (sc), vehicle: water",100 % of control
N=C(N)Cc1ccc(NC(=O)c2ccc(C(=O)Nc3ccc(CC(=N)N)cc3)cc2)cc1,T/C,"dose: 8.4 mg/kg/injection, schedule: Q01DX Z (sc), vehicle: water",110 % of control
same,T/C,"dose: 14.0 mg/kg/injection, schedule: Q01DX Z (sc), vehicle: water",105 % of control
same,T/C,[1],115 % of control
same,T/C,[2],110 % of control
same,T/C,[3],115 % of control
N[C@H](C(=O)O)[C@@H]1CC(Cl)=NO1,T/C,"dose: 2.0 mg/kg/injection, schedule: Q01DX009 (sc), vehicle: saline",116 % of control
Cc1ccc(NCCN(C)C)c2c(=O)c3cc(O)ccc3sc12,T/C,"dose: 12.5 mg/kg/injection, schedule: Q01DX009 (ip), vehicle: Klucel (hydroxypropylcellulose) (HPC)",110 % of control and 112 % of control
same,T/C,"dose: 25.0 mg/kg/injection, schedule: Q01DX009 (ip), vehicle: Klucel (hydroxypropylcellulose) (HPC)",112 % of control and 117 % of control
same,T/C,"dose: 50.0 mg/kg/injection, schedule: Q01DX009 (ip), vehicle: Klucel (hydroxypropylcellulose) (HPC)",165 % of control
Clc1ccc(CNc2ncnc3[nH]ncc23)cc1Cl,T/C,"dose: 8.4 mg/kg/injection, schedule: Q01DX Z (sc), vehicle: methylcellulose (MC)",95 % of control
same,T/C,"dose: 14.0 mg/kg/injection, schedule: Q01DX Z (sc), vehicle: methylcellulose (MC)",95 % of control
same,T/C,"dose: 23.0 mg/kg/injection, schedule: Q01DX Z (sc), vehicle: methylcellulose (MC)",95 % of control
same,T/C,"dose: 39.0 mg/kg/injection, schedule: Q01DX Z (sc), vehicle: methylcellulose (MC)",100 % of control
same,T/C,"dose: 65.0 mg/kg/injection, schedule: Q01DX Z (sc), vehicle: methylcellulose (MC)",104 % of control
same,T/C,"dose: 108.0 mg/kg/injection, schedule: Q01DX Z (sc), vehicle: methylcellulose (MC)",114 % of control
same,T/C,"dose: 180.0 mg/kg/injection, schedule: Q01DX Z (sc), vehicle: methylcellulose (MC)",104 % of control
Nc1ncn(C2OC(CO)C(O)C2O)c(=O)n1 (centres undefined),T/C,"dose: 0.2 mg/kg/injection, schedule: Q01DX009 (ip), vehicle: saline",97 % of control
same,T/C,"dose: 0.2 mg/kg/injection, schedule: Q01DX009 (sc), vehicle: saline",102 % of control
same,T/C,"dose: 0.4 mg/kg/injection, schedule: Q01DX009 (ip), vehicle: saline",113 % of control
same,T/C,"dose: 0.4 mg/kg/injection, schedule: Q01DX009 (sc), vehicle: saline",115 % of control and 119 % of control
same,T/C,"dose: 0.8 mg/kg/injection, schedule: Q01DX009 (sc), vehicle: saline",120 % of control
same,T/C,"dose: 1.07 mg/kg/injection, schedule: Q01DX009 (sc), vehicle: saline",158 % of control
same,T/C,"dose: 1.6 mg/kg/injection, schedule: Q01DX009 (ip), vehicle: saline",150 % of control
same,T/C,"dose: 2.1 mg/kg/injection, schedule: Q01DX009 (ip), vehicle: saline",178 % of control
same,T/C,"dose: 2.1 mg/kg/injection, schedule: Q01DX009 (sc), vehicle: saline",187 % of control
same,T/C,"dose: 7.2 mg/kg/injection, schedule: Q01DX009 (ip), vehicle: saline",206 % of control and 88 % of control
same,T/C,"dose: 9.6 mg/kg/injection, schedule: Q01DX009 (ip), vehicle: saline",113 % of control
same,T/C,"dose: 28.8 mg/kg/injection, schedule: Q01DX009 (sc), vehicle: saline",106 % of control
